Molecules are shown by their SMILES.

Series [1] deals with MDA-MB-231 cells expressing NQO1 (231+). The series can be described thus: Long term survival assay. The format is cell-based, human. Conditions: 231-NQ+ cells. As for the experimental part: Cells were cultured and treated as described above.
Data were expressed as relative survival (treated/control×100%).

In the next series the test system is PARP1 in 231-NQ+ cells. The series can be described thus: PAR formation (PARP1 hyperactivation), Western blot. The format is cell-based, human. Conditions: after 2 μM β-lap.
The next series concerns H441 cells. Briefly: LD50 responses of NSCLC cell lines treated with β-Lap. Conditions: NQO1 enzyme activities ≧50 units, β-Lap 2 h, 7 days later. The format is cell-based, human. As for the experimental part: (§1) LD50 responses were plotted as a function of NQO1 enzymatic levels. The notations, *1/*1 and *2/*2 represent the NQO1 status of each cell line as homozygous wild type (*1/*1) or homozygous polymorphic (*2/*2) genotypes. […] In (b), Kaplan-Meier survival curve of mice bearing orthotopic lung tumors implanted with *1/*1 A549 cells. Mice were treated intravenously (5 doses every other day) with β-lap-HPβ-CD or vehicle alone (HPβ-CD).

The next series relates to A549 cells. The series is described as above. Conditions: NQO1 enzyme activities ≧50 units, β-Lap 2 h, 7 days later. The format is cell-based, human. As for the experimental part: as §1
For another series, the system named is NQO1+ human cancer cells. Conditions: cited from earlier work.
The subject of series [2] is orthotopic lung tumors, *2/*2 or *3/*3. Briefly: Survival of mice bearing orthotopic lung tumors. The format is in vivo. Conditions: *2/*2 or *3/*3 tumors, β-lap-HPβ-CD intravenously, 5 doses every other day. As for the experimental part: FIG. 16 depicts NQO1 levels predict response to NQO1 bioactivatable therapies. In (a) LD50 responses of non-small cell lung cancer (NSCLC) cell lines treated with β-Lap for 2 h and harvester 7 days later. LD50 responses were plotted as a function of NQO1 enzymatic levels. The notations, *1/*1 and *2/*2 represent the NQO1 status of each cell line as homozygous wild type (*1/*1) or homozygous polymorphic (*2/*2) genotypes. Note that all heterozygote cells containing one wild-type allele (*1) are wild-type, phenotypically, for NQO1 expression, such that only homozygous *2/*2 or 3/3 are considered non-responsive to NQO1 bioactivatable drugs. Note the high resistance of H596 and H2862 cell lines to β-lapachone compared to all of the wild-type *1/*1 cells with LD50 values less than 5 μM. Note also that *3/*3 SNPs in NQO1 are far more rare than *2/*2 single point mutations in NQO1. In (b), Kaplan-Meier survival curve of mice bearing orthotopic lung tumors implanted with *1/*1 A549 cells. Mice were treated intravenously (5 doses every other day) with β-lap-HPβ-CD or vehicle alone (HPβ-CD). Similar studies with *2/*2 or *3/*3 tumors were performed and these tumors were non-responsive to β-lapachone or other NQO1 bioactivatable drug therapies.

Series [3] is described as follows: β-Lap pharmacokinetic (PK) analyses. The format is in vivo. Conditions: athymic nude mice, plasma ng/mL, organs ng/g. The source says: FIG. 27 depicts correlative studies of NQO1 expression and β-lap, a bioactivatable drug. (a) NQO1 activity assay (reported as nMoles cyt-c/min/μg protein) in paired tumor (T) and associated normal tissue (N) from human NSCLC patient samples. NQO1 activity was not detectable in normal lung tissue. (b) β-Lap pharmacokinetic (PK) analyses in athymic nude mice. Black circles denote plasma concentrations (ng/mL); other colors denote various organ/tumor concentrations (ng/g). […] (c) NQO1 expression by immunohistochemistry (IHC). Arrowhead denotes NQO1+ prostate cancer cells. Arrow denotes normal prostate gland tissue that have low, or no, detectable NQO1 protein levels.

For a further series, the system named is PC-3 cells. The series can be described thus: Apoptosis by TUNEL assay. The format is cell-based, human. Conditions: 2 μM β-lap alone, NQO1-expressing PC-3 cells. How it is done: Apoptosis was quantified using ApoDirect™ (TUNEL) assays from BD Pharmingen as described (Bey et al., 2007, Proc. Natl. Acad. Sci. USA, 104:11832-837). Samples were analyzed by using FC-500 flow cytometer (Beckman Coulter Electronics, Brea, Calif.) and Elite acquisition software. Data were expressed as means±SE from three independent experiments.

Series [4] has as its system NQO1. The series can be described thus: NQO1 enzyme assays using β-lapachone or the standard menadione substrates. The format is biochemical, human. Conditions: β-lapachone as substrate, HCC44 *1/*2. As for the experimental part:
(§2) S9 Supernatants were prepared from cells in mid-log to late log phase growth. […] The cell suspensions were sonicated on ice four times, using 10-s pulses, and then centrifuged at 14,000×g for 20 min. The S9 supernatants were aliquoted into microcentrifuge tubes and stored at −80° C. until used. A 1× protease inhibitor cocktail was added to prevent enzyme activity degradation. […] Menadione was used as the electron acceptor. NADH was used as the electron donor.
(§3) NQO1 activity was measured using NADH (200 μM) as the immediate electron donor and menadione (10 μM) as the intermediate electron acceptor. […] Biochem. Biophys. […] NADH: cytochrome b5 reductase was measured using NADH (200 μM) as the electron donor, and […] was measured using NADPH (200 μM) as electron donor (45) in a Beckman DU 640 spectrophotometer (Beckman Coulter, Fullerton, Calif.). Reactions were carried out at 37° C. and were initiated by the addition of S9 supernatants. Varying amounts of supernatants, from 10 to 40 μL, were used to ensure linearity of rates with protein concentration. […] Results shown are the average enzyme activity for three separate cell extractions±S.D. or both values from duplicate experiments.
(§4) Cell lines, mostly from a 5-panel nonsmall cell lung cancer panel from the UT Southwestern SPORE, were assessed for NQO1 polymorphism status and then monitored for NQO1 enzyme assays using β-lapachone or the standard menadione substrates. […] NQO1*2/*2 and *3/*3 polymorphisms were detected from NQO1 *1/*1 wild-type sequences by PCR-RFLP. Genomic DNA was extracted from the cells using Qiagen spin columns. Using previously described oligonucleotide primers, PCR products underwent gel electrophoresis. Final genotyping was determined based on the size and pattern of separated bands diagnostic for *1/*1 (wild-type), or polymorphic *2/*2 or *3/*3 NQO1 polymorphisms.

In series [5] the target is T1, NQO1 (Homo sapiens, UniProt P15559, R139W).
T1 construct: S9 Supernatants were prepared from cells in mid-log to late log phase growth; endogenous in cells; host or cells: cancer cell lines, mostly from a non-small cell lung cancer panel (e.g. Calu-3); S9 supernatants
T1 sequence (P15559 whole entry R139W): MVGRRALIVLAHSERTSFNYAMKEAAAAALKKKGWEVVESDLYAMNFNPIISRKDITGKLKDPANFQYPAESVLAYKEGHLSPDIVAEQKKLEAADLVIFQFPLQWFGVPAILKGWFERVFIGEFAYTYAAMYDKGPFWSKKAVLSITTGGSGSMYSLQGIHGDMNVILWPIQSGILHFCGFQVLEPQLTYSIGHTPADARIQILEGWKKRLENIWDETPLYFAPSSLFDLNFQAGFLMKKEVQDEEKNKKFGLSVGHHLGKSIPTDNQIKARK
Described as above. The format is biochemical. Conditions: β-lapachone as substrate. As for the experimental part: as §2, §3, §4

The target in series [6] is NQO1 (Homo sapiens, UniProt P15559). The description is as above. Conditions: β-lapachone as substrate, H1993 *1/*1. The format is biochemical. Set-up: S9 Supernatants were prepared from cells in mid-log to late log phase growth; endogenous in cells; host or cells: cancer cell lines, mostly from a non-small cell lung cancer panel; S9 supernatants. How it is done: as §2, §3, §4
Chain of NQO1 (Homo sapiens, UniProt P15559) (P15559 whole entry): as the sequence (P15559 whole entry R139W) above, with W139R counted along it

Consider `CC1(C)CCC2=C(O1)c1ccccc1C(=O)C2=O` [β-Lap, 3,4-dihydro-2,2-dimethyl-2H-naphtho[1,2-b]pyran-5,6-dione], for which the Lethal dose in series [1] (2 h) is > 2 µM. This molecule also registered a Sublethal dose in series [1] (2 h) of 1 µM. Besides, in [1] (2 h treatment), the LD70 dose is ~2 µM. Besides, in the series on PARP1 in 231-NQ+ cells, the “Time of peak PAR formation” value is 30 min. Further, the LD50 in the series on H441 cells came to 1.5 µM; in the series on A549 cells, 2.5 µM. Further, in the series on NQO1+ human cancer cells (1-2 μM treatments for 2-4 h), the Lethality entry is listed as “not lethal”. Also, in the series on NQO1+ human cancer cells (2-3 μM for 2-4 h), the “Cell death responses (TUNEL staining)” value is > 90%. Further, the Response of tumors entry in [2] was “non-responsive”. For the same molecule, in [3], the Organ/tumor concentrations result is given as “elevated levels of the drug in lung”. The same molecule showed an Apoptosis in the series on PC-3 cells of 5±2%. For the same molecule, the “NQO1 activity, β-Lap” value in the series on NQO1 [4] was 879 ± 14 nmol/min/µg; at NQO1 [5] (Calu-3/NSCLC *3/*3), 243 ± 2 nmol/min/µg; at NQO1 [5] (H2009/NSCLC *3/*3), 120 ± 3 nmol/min/µg; at NQO1 [5] (HCC1171/NSCLC *3/*3), 369 ± 9 nmol/min/µg; at NQO1 [5] (T47D/BreastCancer *3/*3) it was 138 ± 3 nmol/min/µg; on NQO1 [6], 1940 ± 12 nmol/min/µg.

Source of the values: patent US9469878B2, “Methods of treating cancer comprising targeting NQO1” (The Board of Regents of the University of Texas System, priority 2010, dated 2016).
